We go through 17 compounds from patent US20090304692A1, “TRIAZINE COMPOUNDS AS PI3 KINASE AND MTOR INHIBITORS” (Wyeth, priority 2008, published 2009).

Experiment [1] relates to human breast MDA-MB-361 tumor cell line. The experiment in a line: In vitro cell culture growth assay (MTS), MDA-MB-361. The settings on record: Homo sapiens, MTS cell growth assay, three days after drug treatment, MDA-MB-361 cells, read-out: IC50 MDA-MB-361. The format is cell-based.
The target in experiment [2] is PI3K-α (Homo sapiens, UniProt P42336). Nature of the experiment: PI3K-alpha fluorescence polarization assay. The settings on record: read-out: IC50 PI3Kα. For orientation: Polarisation of emitted light reports the rotation of a fluorescent probe.
Chain of PI3K-α (P42336 whole entry, species assumed): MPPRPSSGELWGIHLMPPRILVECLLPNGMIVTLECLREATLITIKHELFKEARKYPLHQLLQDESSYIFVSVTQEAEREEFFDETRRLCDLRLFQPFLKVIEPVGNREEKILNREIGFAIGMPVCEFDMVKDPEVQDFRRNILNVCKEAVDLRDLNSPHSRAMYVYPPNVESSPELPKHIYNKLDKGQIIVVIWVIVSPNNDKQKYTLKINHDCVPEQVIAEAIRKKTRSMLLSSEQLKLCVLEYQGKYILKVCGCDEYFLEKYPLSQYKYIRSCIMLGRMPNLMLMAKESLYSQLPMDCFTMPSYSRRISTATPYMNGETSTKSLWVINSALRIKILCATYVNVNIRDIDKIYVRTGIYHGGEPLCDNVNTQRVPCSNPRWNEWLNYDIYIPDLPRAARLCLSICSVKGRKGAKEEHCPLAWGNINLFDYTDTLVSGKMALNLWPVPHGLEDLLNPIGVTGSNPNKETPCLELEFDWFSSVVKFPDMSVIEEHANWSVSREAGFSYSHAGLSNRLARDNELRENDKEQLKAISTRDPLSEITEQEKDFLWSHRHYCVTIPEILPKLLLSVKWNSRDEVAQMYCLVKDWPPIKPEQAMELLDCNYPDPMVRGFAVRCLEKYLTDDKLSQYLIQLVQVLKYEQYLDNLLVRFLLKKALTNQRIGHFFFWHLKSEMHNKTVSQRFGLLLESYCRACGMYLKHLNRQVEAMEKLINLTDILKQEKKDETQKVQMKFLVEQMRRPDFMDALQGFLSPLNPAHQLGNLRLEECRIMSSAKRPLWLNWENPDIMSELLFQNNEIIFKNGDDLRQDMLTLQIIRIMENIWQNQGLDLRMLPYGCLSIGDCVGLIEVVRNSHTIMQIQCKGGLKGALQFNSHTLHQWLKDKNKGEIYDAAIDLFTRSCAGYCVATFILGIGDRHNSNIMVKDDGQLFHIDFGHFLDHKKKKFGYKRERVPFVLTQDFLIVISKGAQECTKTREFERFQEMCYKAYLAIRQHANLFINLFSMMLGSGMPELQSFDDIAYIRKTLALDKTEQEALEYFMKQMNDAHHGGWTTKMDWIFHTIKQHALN
Chain of PI3K-α (P27986 whole entry partner, species assumed): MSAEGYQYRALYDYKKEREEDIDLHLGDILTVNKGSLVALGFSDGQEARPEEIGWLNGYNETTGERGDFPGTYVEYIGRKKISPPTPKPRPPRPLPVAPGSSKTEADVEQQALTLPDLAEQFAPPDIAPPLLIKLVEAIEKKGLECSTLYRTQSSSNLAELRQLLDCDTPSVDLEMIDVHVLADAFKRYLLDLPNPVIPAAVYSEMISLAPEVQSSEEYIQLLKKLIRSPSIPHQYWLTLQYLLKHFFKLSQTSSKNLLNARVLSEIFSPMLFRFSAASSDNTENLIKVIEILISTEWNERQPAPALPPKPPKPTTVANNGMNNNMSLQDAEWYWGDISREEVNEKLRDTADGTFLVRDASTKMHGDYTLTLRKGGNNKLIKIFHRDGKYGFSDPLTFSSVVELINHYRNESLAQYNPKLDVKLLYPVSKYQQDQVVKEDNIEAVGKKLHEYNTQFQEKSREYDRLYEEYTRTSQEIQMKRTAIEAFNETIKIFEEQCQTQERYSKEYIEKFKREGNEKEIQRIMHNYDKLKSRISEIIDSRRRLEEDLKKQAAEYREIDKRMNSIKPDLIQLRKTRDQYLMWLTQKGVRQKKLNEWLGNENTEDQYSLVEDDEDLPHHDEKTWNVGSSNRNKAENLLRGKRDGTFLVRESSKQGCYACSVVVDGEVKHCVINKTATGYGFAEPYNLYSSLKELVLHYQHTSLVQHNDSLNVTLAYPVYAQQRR
Experiment [3] has as its target Human mTOR (FLAG-TOR) (Homo sapiens, UniProt P42345). Nature of the experiment: mTOR kinase assay (DELFIA format, purified enzyme). The settings on record: read-out: IC50 mTOR. In kind it is biochemical.
The subject of experiment [4] is human prostate PC3-mm2 tumor cell line. Nature of the experiment: In vitro cell culture growth assay (MTS), PC3-mm2. The format is cell-based. To be noted: Homo sapiens, PC3MM2, 72 h, MTS cell growth assay, three days after drug treatment, PC3-mm2 cells; read-out: IC50 PC3-mm2.
Experiment [5] addresses PI3K-γ (Homo sapiens, UniProt P48736). The experiment in a line: PI3K-gamma fluorescence polarization assay. The settings on record: read-out: IC50 PI3Kγ.

The structures appear in SMILES notation. Read-outs that look alike come from different tables or passages of the source. Bounds are passed on as bounds.

Broadly, the IC50 is the concentration needed to halve the response being measured.

Chain of PI3K-γ (P48736 whole entry, species assumed): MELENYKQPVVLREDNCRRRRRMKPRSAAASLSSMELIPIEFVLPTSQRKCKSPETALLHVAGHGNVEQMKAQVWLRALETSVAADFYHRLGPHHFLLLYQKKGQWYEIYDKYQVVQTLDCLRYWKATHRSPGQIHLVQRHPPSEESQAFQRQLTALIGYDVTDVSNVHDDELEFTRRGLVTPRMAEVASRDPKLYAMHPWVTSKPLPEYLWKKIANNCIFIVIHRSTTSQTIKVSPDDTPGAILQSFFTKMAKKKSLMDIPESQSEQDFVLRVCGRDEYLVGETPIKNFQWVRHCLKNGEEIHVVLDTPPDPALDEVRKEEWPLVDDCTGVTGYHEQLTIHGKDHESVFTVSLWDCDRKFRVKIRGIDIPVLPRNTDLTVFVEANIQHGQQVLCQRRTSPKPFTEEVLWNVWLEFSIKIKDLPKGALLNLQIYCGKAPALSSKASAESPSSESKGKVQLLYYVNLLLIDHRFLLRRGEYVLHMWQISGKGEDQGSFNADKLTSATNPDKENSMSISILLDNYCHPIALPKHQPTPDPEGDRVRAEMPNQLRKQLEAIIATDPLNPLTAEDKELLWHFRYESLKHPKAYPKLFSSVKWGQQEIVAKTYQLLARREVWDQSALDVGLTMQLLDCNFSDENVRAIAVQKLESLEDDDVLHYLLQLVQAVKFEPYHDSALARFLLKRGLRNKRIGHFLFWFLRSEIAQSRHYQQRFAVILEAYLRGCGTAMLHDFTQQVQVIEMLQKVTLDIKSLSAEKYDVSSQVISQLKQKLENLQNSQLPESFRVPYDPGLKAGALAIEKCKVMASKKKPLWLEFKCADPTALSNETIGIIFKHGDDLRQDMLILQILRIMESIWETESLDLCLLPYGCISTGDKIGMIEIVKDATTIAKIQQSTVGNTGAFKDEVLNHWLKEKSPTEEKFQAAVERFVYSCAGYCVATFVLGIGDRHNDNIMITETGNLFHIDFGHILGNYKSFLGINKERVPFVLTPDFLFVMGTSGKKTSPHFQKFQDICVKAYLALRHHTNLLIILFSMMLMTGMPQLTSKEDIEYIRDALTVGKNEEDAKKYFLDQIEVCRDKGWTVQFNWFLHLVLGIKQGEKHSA
Chain of Human mTOR (FLAG-TOR) (P42345 1360-2549 limits assumed): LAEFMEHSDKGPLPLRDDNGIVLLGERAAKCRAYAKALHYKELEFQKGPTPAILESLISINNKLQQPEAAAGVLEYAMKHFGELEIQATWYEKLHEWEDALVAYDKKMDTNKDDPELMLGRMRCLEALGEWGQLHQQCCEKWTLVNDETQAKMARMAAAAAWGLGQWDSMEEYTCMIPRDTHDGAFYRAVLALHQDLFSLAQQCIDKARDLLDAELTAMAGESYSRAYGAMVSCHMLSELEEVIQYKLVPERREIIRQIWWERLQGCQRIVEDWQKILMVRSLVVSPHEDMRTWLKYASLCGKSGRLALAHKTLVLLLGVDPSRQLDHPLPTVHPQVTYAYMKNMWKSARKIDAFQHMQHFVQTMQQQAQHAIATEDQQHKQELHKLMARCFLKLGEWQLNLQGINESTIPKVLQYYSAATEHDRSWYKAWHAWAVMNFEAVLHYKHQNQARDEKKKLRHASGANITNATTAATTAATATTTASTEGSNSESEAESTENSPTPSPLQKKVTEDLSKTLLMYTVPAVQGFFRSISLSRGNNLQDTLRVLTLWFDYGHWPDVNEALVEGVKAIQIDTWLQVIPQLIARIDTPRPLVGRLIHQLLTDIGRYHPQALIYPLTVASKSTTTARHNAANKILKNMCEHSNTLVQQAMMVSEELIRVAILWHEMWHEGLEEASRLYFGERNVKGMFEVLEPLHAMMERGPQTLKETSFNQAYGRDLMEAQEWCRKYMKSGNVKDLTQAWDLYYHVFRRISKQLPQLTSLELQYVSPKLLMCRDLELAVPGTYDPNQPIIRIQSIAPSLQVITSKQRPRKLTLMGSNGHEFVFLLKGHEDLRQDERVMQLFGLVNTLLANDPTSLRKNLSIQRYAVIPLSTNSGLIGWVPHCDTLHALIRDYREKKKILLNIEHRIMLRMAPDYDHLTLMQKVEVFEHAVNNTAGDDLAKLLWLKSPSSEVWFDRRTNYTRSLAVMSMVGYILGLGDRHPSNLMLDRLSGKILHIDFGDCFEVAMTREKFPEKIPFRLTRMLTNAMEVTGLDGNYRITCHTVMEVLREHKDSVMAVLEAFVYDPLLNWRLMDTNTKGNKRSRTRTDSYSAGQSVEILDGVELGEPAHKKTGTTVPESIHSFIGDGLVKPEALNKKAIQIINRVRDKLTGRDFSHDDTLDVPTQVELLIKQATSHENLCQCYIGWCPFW

For the compound `O=C(Nc1ccc(C(=O)N2CCOCC2)cc1)Nc1ccc(-c2nc(N3CCOCC3)nc(N3C4CCC3COC4)n2)cc1` [Example 763, 1-[4-(morpholin-4-ylcarbonyl)phenyl]-3-{4-[4-morpholin-4-yl-6-(3-oxa-8-azabicyclo[3.2.1]oct-8-yl)-1,3,5-triazin-2-yl]phenyl}urea], the 50% inhibitory concentration (IC50) in experiment [1] (MDA-MB-361, 72 h) was 4 nM; in experiment [2] it was 3 nM; in experiment [3], 0.445 nM; in experiment [4], 7 nM; in experiment [5], 24 nM.
With `O=C(Nc1ccc(C(=O)O)cc1)Nc1ccc(-c2nc(N3CCOCC3)nc(N3C4CCC3COC4)n2)cc1` [Example 764, 4-[({4-[4-morpholin-4-yl-6-(3-oxa-8-azabicyclo[3.2.1]oct-8-yl)-1,3,5-triazin-2-yl]phenyl}carbamoyl)amino]benzoic acid], the IC50 in experiment [1] (MDA-MB-361, 72 h) came out at 628 nM; in experiment [2] it was 8.5 nM; in experiment [3] it was 0.21 nM; in experiment [4] it was 678 nM; in experiment [5] it was 67.5 nM.
`O=C(Nc1ccncc1)Nc1ccc(-c2nc(N3CCOCC3)nc(N3C4COCC3COC4)n2)cc1` [Example 765, 1-{4-[4-(3,7-dioxa-9-azabicyclo[3.3.1]non-9-yl)-6-morpholin-4-yl-1,3,5-triazin-2-yl]phenyl}-3-pyridin-4-ylurea]: the IC50 came to 21 nM in experiment [1] (72 h); 8.5 nM in experiment [2]; 0.195 nM in experiment [3]; 27 nM in experiment [4]; 78.5 nM in experiment [5].
The corresponding values for `CN1CCN(c2ccc(NC(=O)Nc3ccc(-c4nc(N5CCOCC5)nc(N5C6CCC5COC6)n4)cc3)cn2)CC1` [Example 766, 1-[6-(4-methylpiperazin-1-yl)pyridin-3-yl]-3-{4-[4-morpholin-4-yl-6-(3-oxa-8-azabicyclo[3.2.1]oct-8-yl)-1,3,5-triazin-2-yl]phenyl}urea] are 26 nM, 24 nM, 1.31 nM, 50 nM and 85.5 nM.
`CN(C)C1CCN(C(=O)c2ccc(NC(=O)Nc3ccc(-c4nc(N5CCOCC5)nc(N5C6COCC5COC6)n4)cc3)cc2)CC1` [Example 767, 1-(4-{[4-(dimethylamino)piperidin-1-yl]carbonyl}phenyl)-3-{4-[4-(3,7-dioxa-9-azabicyclo[3.3.1]non-9-yl)-6-morpholin-4-yl-1,3,5-triazin-2-yl]phenyl}urea]: the IC50 in experiment [1] (MDA-MB-361, 72 h) turned out to be 5 nM; in experiment [2], 2.1 nM; in experiment [3], 0.2 nM; in experiment [4], 13 nM; in experiment [5] it was 17 nM.
Consider `CN(C)CCN(C)C(=O)c1ccc(NC(=O)Nc2ccc(-c3nc(N4CCOCC4)nc(N4C5COCC4COC5)n3)cc2)cc1` [Example 768, N-[2-(dimethylamino)ethyl]-4-[({4-[4-(3,7-dioxa-9-azabicyclo[3.3.1]non-9-yl)-6-morpholin-4-yl-1,3,5-triazin-2-yl]phenyl}carbamoyl)amino]-N-methylbenzamide], for which the IC50 was 7 nM in experiment [1] (72 h); 1.2 nM in experiment [2]; 0.115 nM in experiment [3]; 8 nM in experiment [4]; 18.5 nM in experiment [5].
As to `CN1CCN(C(=O)c2ccc(NC(=O)Nc3ccc(-c4nc(N5CCOCC5)nc(N5C6COCC5COC6)n4)cc3)cc2)CC1` [Example 769, 1-{4-[4-(3,7-dioxa-9-azabicyclo[3.3.1]non-9-yl)-6-morpholin-4-yl-1,3,5-triazin-2-yl]phenyl}-3-{4-[(4-methylpiperazin-1-yl)carbonyl]phenyl}urea], the IC50 in experiment [1] (MDA-MB-361, 72 h) turned out to be 6 nM; in experiment [2], 2.1 nM; in experiment [3], 0.23 nM; in experiment [4] it was 14 nM; in experiment [5], 17.5 nM.
Turning to `COC(=O)c1ccc(NC(=O)Nc2ccc(-c3nc(N4CCOCC4)nc(N4C5COCC4COC5)n3)cc2)cc1` [Example 770, methyl 4-[({4-[4-(3,7-dioxa-9-azabicyclo[3.3.1]non-9-yl)-6-morpholin-4-yl-1,3,5-triazin-2-yl]phenyl}carbamoyl)amino]benzoate], the IC50 in experiment [1] (72 h) was determined as 40 nM; in experiment [2], 30.5 nM; in experiment [3] it was 0.27 nM; in experiment [4], 25 nM; in experiment [5] it was 99 nM.
Turning to `O=C(Nc1ccc(C(=O)O)cc1)Nc1ccc(-c2nc(N3CCOCC3)nc(N3C4COCC3COC4)n2)cc1` [Example 771, 4-[({4-[4-(3,7-dioxa-9-azabicyclo[3.3.1]non-9-yl)-6-morpholin-4-yl-1,3,5-triazin-2-yl]phenyl}carbamoyl)amino]benzoic acid], the IC50 in experiment [1] (72 h) is > 1000 nM; in experiment [2], 19.5 nM; in experiment [3], 0.215 nM; in experiment [4] it was > 1000 nM; in experiment [5], 66 nM.
For the compound `O=C(Nc1ccc(C(=O)N2CCNCC2)cc1)Nc1ccc(-c2nc(N3CCOCC3)nc(N3C4COCC3COC4)n2)cc1` [Example 772, 1-{4-[4-(3,7-dioxa-9-azabicyclo[3.3.1]non-9-yl)-6-morpholin-4-yl-1,3,5-triazin-2-yl]phenyl}-3-[4-(piperazin-1-ylcarbonyl)phenyl]urea], the IC50 was found to be 5 nM in experiment [1] (MDA-MB-361, 72 h); 0.8 nM in experiment [2]; 0.29 nM in experiment [3]; 15 nM in experiment [4]; 9.5 nM in experiment [5].
The corresponding values for `CC(C)N1CCN(C(=O)c2ccc(NC(=O)Nc3ccc(-c4nc(N5CCOCC5)nc(N5C6COCC5COC6)n4)cc3)cc2)CC1` [Example 773, 1-{4-[4-(3,7-dioxa-9-azabicyclo[3.3.1]non-9-yl)-6-morpholin-4-yl-1,3,5-triazin-2-yl]phenyl}-3-{4-[(4-isopropylpiperazin-1-yl)carbonyl]phenyl}urea] are 4 nM, 3 nM, 0.305 nM, 6 nM and 36.5 nM.
Consider `O=C(Nc1ccc(C(=O)NCCN2CCCC2)cc1)Nc1ccc(-c2nc(N3CCOCC3)nc(N3C4COCC3COC4)n2)cc1` [Example 774, 4-[({4-[4-(3,7-dioxa-9-azabicyclo[3.3.1]non-9-yl)-6-morpholin-4-yl-1,3,5-triazin-2-yl]phenyl}carbamoyl)amino]-N-(2-pyrrolidin-1-ylethyl)benzamide], for which the IC50 is 14 nM in experiment [1] (72 h); 2 nM in experiment [2]; 0.23 nM in experiment [3]; 19 nM in experiment [4]; 41.5 nM in experiment [5].
The corresponding values for `O=C(Nc1ccc(C(=O)NCCN2CCCCC2)cc1)Nc1ccc(-c2nc(N3CCOCC3)nc(N3C4COCC3COC4)n2)cc1` [Example 775, 4-[({4-[4-(3,7-dioxa-9-azabicyclo[3.3.1]non-9-yl)-6-morpholin-4-yl-1,3,5-triazin-2-yl]phenyl}carbamoyl)amino]-N-(2-piperidin-1-ylethyl)benzamide] are 5 nM, 2.5 nM, 0.23 nM, 7 nM and 46.5 nM.
As to `O=C(Nc1ccc(C(=O)N2CCC(N3CCCC3)CC2)cc1)Nc1ccc(-c2nc(N3CCOCC3)nc(N3C4COCC3COC4)n2)cc1` [Example 776, 1-{4-[4-(3,7-dioxa-9-azabicyclo[3.3.1]non-9-yl)-6-morpholin-4-yl-1,3,5-triazin-2-yl]phenyl}-3-{4-[(4-pyrrolidin-1-ylpiperidin-1-yl)carbonyl]phenyl}urea], the IC50 was < 3.2 nM in experiment [1] (MDA-MB-361, 72 h); 3 nM in experiment [2]; 0.345 nM in experiment [3]; 6 nM in experiment [4]; 29.5 nM in experiment [5].
`O=C(Nc1ccc(C(=O)N2CCC(N3CCCCC3)CC2)cc1)Nc1ccc(-c2nc(N3CCOCC3)nc(N3C4COCC3COC4)n2)cc1` [Example 777, 1-[4-(1,4′-bipiperidin-1′-ylcarbonyl)phenyl]-3-{4-[4-(3,7-dioxa-9-azabicyclo[3.3.1]non-9-yl)-6-morpholin-4-yl-1,3,5-triazin-2-yl]phenyl}urea]: the IC50 was 2 nM in experiment [1] (MDA-MB-361, 72 h); 4 nM in experiment [2]; 0.265 nM in experiment [3]; 4 nM in experiment [4]; 39 nM in experiment [5].
Consider `O=C(Nc1ccc(C(=O)NCCc2ccccn2)cc1)Nc1ccc(-c2nc(N3CCOCC3)nc(N3C4COCC3COC4)n2)cc1` [Example 778, 4-[({4-[4-(3,7-dioxa-9-azabicyclo[3.3.1]non-9-yl)-6-morpholin-4-yl-1,3,5-triazin-2-yl]phenyl}carbamoyl)amino]-N-(2-pyridin-2-ylethyl)benzamide], for which the IC50 worked out at 17 nM in experiment [1] (72 h); 11.5 nM in experiment [2]; 0.28 nM in experiment [3]; 29 nM in experiment [4]; 126 nM in experiment [5].
The corresponding values for `O=C(Nc1ccc(C(=O)NCCc2ccncc2)cc1)Nc1ccc(-c2nc(N3CCOCC3)nc(N3C4COCC3COC4)n2)cc1` [Example 779, 4-[({4-[4-(3,7-dioxa-9-azabicyclo[3.3.1]non-9-yl)-6-morpholin-4-yl-1,3,5-triazin-2-yl]phenyl}carbamoyl)amino]-N-(2-pyridin-4-ylethyl)benzamide] are 13 nM, 4.2 nM, 0.23 nM, 23 nM and 49.7 nM.
